Laboratory results as given in patent US8748569B2, “Peptide amphiphiles and methods to electrostatically control bioactivity of the ikvav peptide epitope” (Northwestern University, priority 2011, dated 2014).
Values belong to the compound of their own block, whether it stands above or below them. Peptide text beside a SMILES is read from it. * marks the point of attachment. Palmitoyl = CCCCCCCCCCCCCCCC(=O)*

Experiments:
[1] = system: P19 embryonal carcinoma cells differentiated into neurons; assay: Neurite outgrowth of neurons cultured in peptide amphiphile gels; format: cell-based, murine; details: compared to gels of PA 1; for promotion of neurite outgrowth (in words): gels containing 0.2 wt % of the PA with 0.8 wt % PA 1
Method: P19 embryonal carcinoma cells were cultured in media composed of α-MEM (Gibco), 7.5% newborn calf serum (Lonza), 2.5% fetal bovine serum (Gibco), penicillin (100 units/ml) and streptomycin (100 ug/ml) (Invitrogen). Neuronal differentiation was induced by plating P19 cells in non-treated Petri dishes in media containing 5 uM retinoic acid (Sigma) for 4 days. Neurospheres were collected from the Petri dish and allowed to settle in a centrifuge tube for 10 minutes. Media was removed, then trypsin/EDTA solution was added and the tube was gently agitated for 5 minutes. Cells were dissociated by triturating the neurospheres, then media was added to inactivate the trypsin. Cells were centrifuged and the pellet resuspended in media to a concentration of 25,000 cells/ul. Cells were mixed (1:4) with PA solution. The PA/cell solution was pipetted into coverslip-bottom culture dishes (MatTek) and covered with gelling solution (150 mM NaCl, 3 mM KCl, 25 mM CaCl2) for 1 minute to induce gelation, then rinsed with a 150 mM NaCl, 3 mM KCl solution, then media was added to the dish. Cells were cultured for 2 days.
In order to assay neurite outgrowth, gels were rinsed with PBS, then fixed in 4% paraformaldehyde for 30 minutes at room temperature. Gels were rinsed 3× with PBS followed by addition of 10% normal goat serum blocking solution (Invitrogen) with 0.1% Triton X-100 added. Gels were incubated overnight with primary antibody (rabbit anti-β-III-tubulin IgG, 1/2000, Covance) in blocking solution. Gels were rinsed 3× with PBS, then blocked for 30 minutes with blocking solution. Next, gels were incubated with secondary antibody (Alexa Fluor 488 goat anti-rabbit IgG, 1/100, Invitrogen) in blocking solution for 1 hour. After one PBS rinse, nuclei were stained with a 5 ug/ml solution of Hoecsht 34580 (Invitrogen) in PBS for 15 minutes, then rinsed 4 times. Gels were imaged on a Zeiss LSM 510 META laser scanning confocal microscope, individually acquiring z-stacks of randomly chosen cells with neurites. Two gels were imaged per condition for each experiment. Experiments were done in triplicate. For each condition, at least 50 neurons with neurites were imaged. Using the Simple Neurite Tracer plug-in for ImageJ software, neurites were traced and measured. A one-way ANOVA, followed by paired t-tests, were performed to determine significance between conditions. Researchers were blinded to the conditions during imaging and tracing.
Pluripotent murine P19 embryonal carcinoma cells were differentiated into neurons. These neurons were then homogeneously distributed into isotonic salt solutions composed of 0.8 wt % PA 1 mixed with 0.2 wt % 2-5 and gelled with 25 mM CaCl2 (FIG. 3a,b). Mixtures of 1 with 2-5 were used in biological experiments in order to form robust gel matrices capable of supporting cells in culture. After two days of culture, the cells were fixed and the neurites and nuclei were fluorescently labelled green and blue using β-III-tubulin immunostaining and Hoechst staining, respectively, then imaged by confocal microscopy (FIG. 14). Neurites were traced and measured, and average neurite lengths were calculated (FIG. 15).

[2] = Small-angle X-ray scattering (SAXS) of PA nanostructures; format: physicochemical; details: (Core) Shell Cylinder SAXS model; for Total SAXS Cross-section dimensions: diameter
From the text: Small-angle X-ray scattering (SAXS) measurements were obtained using a Rigaku S-MAX 3000 High Brilliance SAXS System. Cu Ka radiation was generated by Osmic MicroMaxs, an integrated microfocus sealed tube generator (powered at 45 kV and 0.9 mA) with Osmict Confocal Max-Fluxs optics, 3 pinholes collimation. A 20×20 cm^2 2D position-sensitive wire detector (1024×1024 pixels) was positioned 150 cm behind the examined samples, resulting in a q-range of 0.07-2.8 nm^−1. The wave vector defined as, q=(4π/λ)sin(2θ/2), where 2y is the scattering angle and λ is wavelength of Cu Kα radiation (1.542 Å). A total of 10^6 or more counts were collected in order to obtain a high signal to noise ratio. Samples were measured for 3600 s, and then background subtracted from data collected using a capillary containing the isotonic salt solution. The 2D SAXS patterns were azimuthally averaged and the background subtracted using standard methods. Data analysis was based on fitting the scattering curve to an appropriate model by a least-squares method using software provided by NIST (NIST SANS analysis version 7.0 on IGOR) ^21 The table below lists the models used to fit the SAXS curves. The Total SAXS cross-sectional dimensions correspond to length and width for molecule 2, and diameter for 3-5.

[3] = Transmission electron microscopy (cryoTEM / conventional TEM) of PA nanostructures; format: physicochemical; details: for fiber diameter in trimer ribbons: cryoTEM / TEM, fibers aggregated side-by-side; for OBSERVED FIBER DIAMETER: from TEM; for ASSEMBLED MORPHOLOGY: observed morphologies from TEM; for average diameter of cylindrical fibers: cryoTEM, 150 mM NaCl, 3 mM KCl, pH 7.4
Method: The nanostructure of each PA molecule under physiologically relevant conditions was investigated using electron microscopy. Samples for vitreous ice cryo-transmission electron microscopy (cryoTEM) were prepared from a 0.1-0.5 wt % PA solution dissolved in 150 mM NaCl, 3 mM KCl, or in a 150 mM NaCl, 3 mM KCl, and 5 mM CaCl2 solution, both at a pH of 7.2-7.4. The solutions were then heated to 80° C. in a water bath for 1 hr, and then slowly cooled to room temperature over the course of 8 hr. 10 μL of each solution was pipetted onto a plasma cleaned holey carbon TEM grid (Electron Microscopy Sciences), blotted and plunged into liquid ethane using a FEI Vitrobot Mark IV. Samples were kept at −180° C. and imaged using a JEOL 1230 TEM operating at 100 kV.
Samples for conventional TEM microscopy were prepared from 0.1 wt % PA solution dissolved in ultrapure water and adjusted to a pH of 7.2-7.4 by adding NaOH. The solutions were then heated to 80° C. in a water bath for 1 hr, and then slowly cooled to room temperature over the course of 8 hr, unless noted otherwise. 2 μL of a 0.1 wt % PA solution was pipetted onto a Carbon Formvar grid (Electron Microscopy Sciences) and allowed to dry. The samples were then negatively stained by pipetting 2 uL of a 2 wt % Uranyl acetate solution and allowed to dry. Each sample was imaged using a JEOL 1230 TEM operating at 100 kV. The average diameter of nanofibers was obtained via measuring 40-100 different fibers from solutions and grids prepared throughout multiple days.
The assembly of each PA molecule under physiologically relevant conditions was examined using cryogenic electron microscopy (cryoTEM), as described in Example 4. PAs were dissolved in isotonic salt solutions resembling extracellular fluid (150 mM NaCl, 3 mM KCl, pH 7.4). […] In order to compare molecular simulation diameters with those observed from TEM, molecular simulation values for the other four PA molecules were scaled by the same amount, 87%.

[4] = Solubility in physiologically relevant monovalent salt solution; format: physicochemical; details: monovalent salt solution composed of 150 mM NaCl and 3 mM KCl
Circular dichroism (CD) = format: physicochemical; details: 1 wt % in 150 mM NaCl, 3 mM KCl
Method: CD was done using a model J-715 Jasco Circular Dichroism Spectrometer. 1 wt % PA solutions were prepared in either a 150 mM NaCl, 3 mM KCl solution or a 150 mM NaCl, 3 mM KCl, and 5 mM CaCl2 solution, both at a pH of 7.2-7.4, as determined via pH paper. The solutions were then heated to 80° C. in a water bath for 1 hr, and then slowly cooled to room temperature over the course of 8 hr. The samples were measured through 0.01 mm quartz plates. Each trace represents the average of three scans. The mean residue ellipticity was corrected for purity of the lyophilized powder from peptide content analysis.

Core Diameter [2]: 1.2 nm
Shell Thickness [2]: 3.8 ± 0.6 nm
Total SAXS Cross-section dimensions [2]: 7.6 ± 1.2 nm
fiber diameter in trimer ribbons [3]: 7.1±1 nm
diameter of cylindrical assemblies ([3]; cryoTEM and conventional TEM): 12.8±1.3 nm
OBSERVED FIBER DIAMETER ([3]; Cylindrical morphology): 128 ± 14 Å
OBSERVED FIBER DIAMETER ([3]; Trimer ribbon morphology): 71 ± 5 Å
ASSEMBLED MORPHOLOGY ([3]; Cylindrical morphology): Cylindrical
ASSEMBLED MORPHOLOGY ([3]; Trimer ribbon morphology): Trimer ribbon
solubility [4]: soluble
peptide secondary structure from CD spectrum (Circular dichroism (CD)): beta-sheet like CD signatures
Compound: CCCCCCCCCCCCCCCC(=O)N[C@H](C(=O)N[C@H](C(=O)N[C@@H](C)C(=O)N[C@@H](C)C(=O)N[C@@H](CCC(=O)O)C(=O)N[C@@H](CCC(=O)O)C(=O)N[C@@H](CCC(=O)O)C(=O)NCC(=O)N[C@H](C(=O)N[C@@H](CCCCN)C(=O)N[C@H](C(=O)N[C@@H](C)C(=O)N[C@H](C(=O)O)C(C)C)C(C)C)[C@@H](C)CC)C(C)C)C(C)C [PA 3, CH3(CH2)14C(O)-VVAAEEEGIKVAV-OH] (Palmitoyl-VVAAEEEGIKVAV-OH)
promotion of neurite outgrowth (in words) [1]: promoted neurite outgrowth
promotion of neurite outgrowth (in words) ([1]; listed as SEQ ID NO. 5): promote neurite outgrowth
increase in neurite outgrowth ([1]; gels of 0.8 wt % PA 1 mixed with 0.2 wt % of the PA, gelled with 25 mM CaCl2, 2 days culture): 42±13%

Compound: CH3(CH2)14C(O)-VVAAEE-NH2 (Palmitoyl-VVAAEE-NH2) [PA 1]
average diameter of cylindrical fibers [3]: 6.7±0.9 nm
average diameter of cylindrical fibers ([3]; listed as PA compound 1): 6.7 nm
OBSERVED FIBER DIAMETER [3]: 66 ± 9 Å
ASSEMBLED MORPHOLOGY [3]: Cylindrical fiber

Compound: CH3(CH2)14C(O)-VVAAEEEGGIKVAV-OH (Palmitoyl-VVAAEEEGGIKVAV-OH; SMILES CCCCCCCCCCCCCCCC(=O)N[C@H](C(=O)N[C@H](C(=O)N[C@@H](C)C(=O)N[C@@H](C)C(=O)N[C@@H](CCC(=O)O)C(=O)N[C@@H](CCC(=O)O)C(=O)N[C@@H](CCC(=O)O)C(=O)NCC(=O)NCC(=O)N[C@H](C(=O)N[C@@H](CCCCN)C(=O)N[C@H](C(=O)N[C@@H](C)C(=O)N[C@H](C(=O)O)C(C)C)C(C)C)[C@@H](C)CC)C(C)C)C(C)C) [PA 4]
promotion of neurite outgrowth (in words) [1]: did not show any biological activity with respect to neurite outgrowth
promotion of neurite outgrowth (in words) ([1]; listed as 4): did not
Core Diameter [2]: .93 nm
Shell Thickness [2]: 2.63 ± 1.1 nm
Total SAXS Cross-section dimensions [2]: 7.1 ± 2.2 nm
fiber diameter in bundled dimers ([3]; cryoTEM and conventional TEM): 8.1±1.0 nm
fiber diameter in triple helices ([3]; cryoTEM and conventional TEM): 7.7±0.9 nm
OBSERVED FIBER DIAMETER ([3]; Dimer Bundle morphology): 77 ± 9 Å
OBSERVED FIBER DIAMETER ([3]; Triple helix morphology): 81 ± 10 Å
ASSEMBLED MORPHOLOGY ([3]; Dimer Bundle morphology): Dimer Bundle
ASSEMBLED MORPHOLOGY ([3]; Triple helix morphology): Triple helix

Compound: CH3(CH2)14C(O)-VVAAEEGIKVAV-OH (Palmitoyl-VVAAEEGIKVAV-OH; SMILES CCCCCCCCCCCCCCCC(=O)N[C@H](C(=O)N[C@H](C(=O)N[C@@H](C)C(=O)N[C@@H](C)C(=O)N[C@@H](CCC(=O)O)C(=O)N[C@@H](CCC(=O)O)C(=O)NCC(=O)N[C@H](C(=O)N[C@@H](CCCCN)C(=O)N[C@H](C(=O)N[C@@H](C)C(=O)N[C@H](C(=O)O)C(C)C)C(C)C)[C@@H](C)CC)C(C)C)C(C)C) [PA 2]
promotion of neurite outgrowth (in words) [1]: no enhancement of neurite outgrowth
promotion of neurite outgrowth (in words) ([1]; listed as 2): did not
fiber diameter in trimer ribbons [3]: 6.0±0.5 nm
OBSERVED FIBER DIAMETER [3]: 60 ± 5 Å
ASSEMBLED MORPHOLOGY [3]: Trimer ribbon
peptide secondary structure from CD spectrum (Circular dichroism (CD)): beta-sheet like CD signatures
